According to ChEMBL document CHEMBL1909046, “DrugMatrix in vitro pharmacology data”:

Legend:
[1] = target: Tyrosine-protein kinase Fyn (Homo sapiens, UniProt P06241); test: biochemical; assay type: cell-based, Insect cells; settings: insect cells;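 also: enzymatic inhibition of Fyn kinase activity measured with Poly(Glu:Tyr) as the phosphorylation substrate; in other assays of this panel Not Active means under 50% inhibition at 10 µM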
[2] = target: Cytochrome P450 2C19 (Homo sapiens, UniProt P33261); settings: bti-tn-5b1-4; also: in other assays of this panel Not Active means under 50% inhibition at 10 µM
[3] = DRUGMATRIX: Glutamate, Kainate radioligand binding (ligand: [3H] Kainic acid); assay type: cell membranes, Rattus norvegicus, Wistar, Brain, Membrane; settings: Not Active = under 50% inhibition at 10 µM
[4] = target: T1, D(4) dopamine receptor (Homo sapiens, UniProt P21917); test: DRUGMATRIX: Dopamine D4.2 radioligand binding (ligand: [3H] Spiperone); assay type: cell membranes, CHO-K1, Membrane; settings: cho-k1; Not Active = under 50% inhibition at 10 µM
T1 sequence (P21917 whole entry): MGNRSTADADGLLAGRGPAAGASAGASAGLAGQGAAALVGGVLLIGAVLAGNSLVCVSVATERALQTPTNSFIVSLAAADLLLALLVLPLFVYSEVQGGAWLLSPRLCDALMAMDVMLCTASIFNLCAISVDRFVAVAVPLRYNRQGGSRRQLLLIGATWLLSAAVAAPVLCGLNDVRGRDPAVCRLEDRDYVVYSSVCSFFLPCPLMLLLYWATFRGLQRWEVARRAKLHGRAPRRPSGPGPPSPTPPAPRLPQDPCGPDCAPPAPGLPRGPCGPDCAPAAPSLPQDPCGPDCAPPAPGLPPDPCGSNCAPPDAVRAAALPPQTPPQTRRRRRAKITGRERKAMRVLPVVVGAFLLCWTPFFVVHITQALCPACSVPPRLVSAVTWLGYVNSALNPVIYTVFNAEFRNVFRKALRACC

[5] = target: T2, Muscarinic acetylcholine receptor M4 (Homo sapiens, UniProt P08173); assay type: cell membranes, CHO-K1, Membrane; settings: cho-k1; also: in other assays of this panel Not Active means under 50% inhibition at 10 µM
T2 sequence (P08173 whole entry): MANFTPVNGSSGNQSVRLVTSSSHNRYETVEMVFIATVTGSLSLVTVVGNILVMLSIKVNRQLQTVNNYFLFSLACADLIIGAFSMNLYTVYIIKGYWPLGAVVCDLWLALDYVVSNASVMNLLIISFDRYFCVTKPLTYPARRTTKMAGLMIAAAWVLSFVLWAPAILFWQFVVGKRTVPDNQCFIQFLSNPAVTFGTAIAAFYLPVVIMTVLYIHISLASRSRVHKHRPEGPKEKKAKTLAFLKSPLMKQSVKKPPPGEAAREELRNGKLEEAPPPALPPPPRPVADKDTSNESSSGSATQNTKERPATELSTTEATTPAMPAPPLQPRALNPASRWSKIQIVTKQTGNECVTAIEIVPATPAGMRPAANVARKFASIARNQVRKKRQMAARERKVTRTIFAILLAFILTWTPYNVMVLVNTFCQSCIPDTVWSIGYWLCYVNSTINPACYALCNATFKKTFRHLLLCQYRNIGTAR

[6] = target: T3, C-C chemokine receptor type 4 (Homo sapiens, UniProt P51679); assay type: cell membranes, Membrane; settings: chem-1; also: in other assays of this panel Not Active means under 50% inhibition at 10 µM
T3 sequence (P51679 whole entry): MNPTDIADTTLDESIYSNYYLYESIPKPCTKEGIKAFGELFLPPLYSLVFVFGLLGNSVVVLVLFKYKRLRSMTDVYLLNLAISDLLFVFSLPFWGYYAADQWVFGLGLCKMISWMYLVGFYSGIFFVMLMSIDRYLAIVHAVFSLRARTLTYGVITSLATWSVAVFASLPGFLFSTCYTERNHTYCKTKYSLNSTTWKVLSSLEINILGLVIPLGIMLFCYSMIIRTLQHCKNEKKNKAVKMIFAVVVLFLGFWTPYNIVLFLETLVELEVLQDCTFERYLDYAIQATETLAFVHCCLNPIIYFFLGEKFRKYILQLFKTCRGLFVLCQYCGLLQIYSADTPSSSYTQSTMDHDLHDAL

[7] = target: T4, Leukotriene C4 synthase (Cavia porcellus, UniProt A6XA80); test: biochemical; assay type: tissue-based, Lung
T4 sequence (A6XA80 whole entry): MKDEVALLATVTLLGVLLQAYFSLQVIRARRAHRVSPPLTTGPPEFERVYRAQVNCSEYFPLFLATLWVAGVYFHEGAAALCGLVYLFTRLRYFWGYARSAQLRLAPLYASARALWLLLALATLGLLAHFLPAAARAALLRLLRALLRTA

[8] = DRUGMATRIX: Phosphodiesterase PDE3 enzyme inhibition (substrate: [3H]cAMP + cAMP); assay type: tissue-based, Homo sapiens; settings: platelet; Not Active = under 50% inhibition at 10 µM
[9] = target: T5, Substance-K receptor (Homo sapiens, UniProt P21452); assay type: cell membranes, CHO, Membrane; settings: cho; also: in other assays of this panel Not Active means under 50% inhibition at 10 µM
T5 sequence (P21452 whole entry): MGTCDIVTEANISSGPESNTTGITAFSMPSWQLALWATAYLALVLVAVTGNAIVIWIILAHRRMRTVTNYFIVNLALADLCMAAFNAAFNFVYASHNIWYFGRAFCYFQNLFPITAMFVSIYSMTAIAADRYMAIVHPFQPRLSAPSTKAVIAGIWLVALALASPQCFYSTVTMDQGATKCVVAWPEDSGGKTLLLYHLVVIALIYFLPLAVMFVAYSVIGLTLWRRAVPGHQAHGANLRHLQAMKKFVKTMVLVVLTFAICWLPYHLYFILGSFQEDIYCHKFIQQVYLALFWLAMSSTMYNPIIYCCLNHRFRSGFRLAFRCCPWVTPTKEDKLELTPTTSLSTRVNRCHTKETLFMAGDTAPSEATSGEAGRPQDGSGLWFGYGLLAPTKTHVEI

[10] = DRUGMATRIX: Sigma2 radioligand binding (ligand: [3H] Ifenprodil); assay type: cell membranes, Rattus norvegicus, Wistar, Brain, Membrane; settings: Not Active = under 50% inhibition at 10 µM
[11] = DRUGMATRIX: Glutamate, NMDA, Phencyclidine radioligand binding (ligand: [3H] TCP); assay type: cell membranes, Rattus norvegicus, Wistar, Cerebral cortex, Membrane; settings: Not Active = under 50% inhibition at 10 µM
[12] = DRUGMATRIX: Purinergic P2X radioligand binding (ligand: [3H] alpha, beta-Methylene-ATP); assay type: cell membranes, Oryctolagus cuniculus, New Zealand albino, Urinary bladder, Membrane; settings: Not Active = under 50% inhibition at 10 µM
[13] = target: Beta-3 adrenergic receptor (Homo sapiens, UniProt P13945); test: DRUGMATRIX: Adrenergic beta3 radioligand binding (ligand: [125I] Cyanopindolol); assay type: cell membranes, HEK293, Membrane; settings: hek293; Not Active = under 50% inhibition at 10 µM
[14] = target: Sodium-dependent dopamine transporter (Homo sapiens, UniProt Q01959); test: DRUGMATRIX: Dopamine Transporter radioligand binding (ligand: [125I] RTI-55); assay type: cell membranes, CHO-K1, Membrane; settings: cho-k1; Not Active = under 50% inhibition at 10 µM
[15] = target: C-C chemokine receptor type 2 (Homo sapiens, UniProt P41597); assay type: cell membranes, CHO-K1, Membrane; settings: cho-k1; also: in other assays of this panel Not Active means under 50% inhibition at 10 µM
[16] = target: 5-hydroxytryptamine receptor 4 (Cavia porcellus, UniProt O70528); assay type: cell membranes, Dunkin-Hartley, Striatum, Membrane; also: in other assays of this panel Not Active means under 50% inhibition at 10 µM
[17] = target: Histamine H2 receptor (Homo sapiens, UniProt P25021); assay type: cell membranes, CHO-K1, Membrane; settings: cho-k1; also: in other assays of this panel Not Active means under 50% inhibition at 10 µM
Sequence of Histamine H2 receptor (P25021 whole entry): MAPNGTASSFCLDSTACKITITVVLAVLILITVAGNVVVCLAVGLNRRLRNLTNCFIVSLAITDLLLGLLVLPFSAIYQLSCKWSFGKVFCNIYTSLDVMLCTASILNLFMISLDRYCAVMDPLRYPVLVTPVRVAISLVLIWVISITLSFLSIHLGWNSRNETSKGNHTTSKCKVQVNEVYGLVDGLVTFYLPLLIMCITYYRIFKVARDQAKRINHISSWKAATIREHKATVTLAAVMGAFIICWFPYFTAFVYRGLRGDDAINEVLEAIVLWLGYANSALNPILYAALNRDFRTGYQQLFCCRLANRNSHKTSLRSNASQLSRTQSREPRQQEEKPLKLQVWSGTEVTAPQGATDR

Sequence of Beta-3 adrenergic receptor (P13945 whole entry): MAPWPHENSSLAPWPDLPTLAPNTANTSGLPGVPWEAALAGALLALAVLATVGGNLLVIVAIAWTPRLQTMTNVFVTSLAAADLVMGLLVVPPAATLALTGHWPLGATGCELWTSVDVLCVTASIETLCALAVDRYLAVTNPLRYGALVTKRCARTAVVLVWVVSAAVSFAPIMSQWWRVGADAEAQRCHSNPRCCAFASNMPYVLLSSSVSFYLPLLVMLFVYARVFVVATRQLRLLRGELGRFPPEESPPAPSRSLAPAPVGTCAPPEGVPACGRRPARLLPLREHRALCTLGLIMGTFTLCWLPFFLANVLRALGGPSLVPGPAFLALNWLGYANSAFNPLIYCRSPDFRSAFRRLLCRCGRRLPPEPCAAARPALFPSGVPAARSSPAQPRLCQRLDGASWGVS
Sequence of Sodium-dependent dopamine transporter (Q01959 whole entry): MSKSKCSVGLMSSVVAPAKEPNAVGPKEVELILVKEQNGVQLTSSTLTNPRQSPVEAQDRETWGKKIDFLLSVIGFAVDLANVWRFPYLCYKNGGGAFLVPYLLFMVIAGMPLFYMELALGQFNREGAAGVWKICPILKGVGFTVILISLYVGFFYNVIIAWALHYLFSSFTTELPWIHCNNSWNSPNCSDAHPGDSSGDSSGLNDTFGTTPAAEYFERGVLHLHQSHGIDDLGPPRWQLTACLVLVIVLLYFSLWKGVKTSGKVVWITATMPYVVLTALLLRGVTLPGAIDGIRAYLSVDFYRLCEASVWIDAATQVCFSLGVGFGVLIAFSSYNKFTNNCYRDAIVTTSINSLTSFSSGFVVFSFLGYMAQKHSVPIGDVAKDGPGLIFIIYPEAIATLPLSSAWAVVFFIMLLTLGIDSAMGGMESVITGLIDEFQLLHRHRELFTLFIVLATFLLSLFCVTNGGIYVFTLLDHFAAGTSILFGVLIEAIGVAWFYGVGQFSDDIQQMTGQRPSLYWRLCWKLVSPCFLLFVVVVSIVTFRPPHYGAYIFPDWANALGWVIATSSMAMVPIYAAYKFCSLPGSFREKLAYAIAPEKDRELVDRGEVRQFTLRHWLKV
Sequence of Cytochrome P450 2C19 (P33261 whole entry): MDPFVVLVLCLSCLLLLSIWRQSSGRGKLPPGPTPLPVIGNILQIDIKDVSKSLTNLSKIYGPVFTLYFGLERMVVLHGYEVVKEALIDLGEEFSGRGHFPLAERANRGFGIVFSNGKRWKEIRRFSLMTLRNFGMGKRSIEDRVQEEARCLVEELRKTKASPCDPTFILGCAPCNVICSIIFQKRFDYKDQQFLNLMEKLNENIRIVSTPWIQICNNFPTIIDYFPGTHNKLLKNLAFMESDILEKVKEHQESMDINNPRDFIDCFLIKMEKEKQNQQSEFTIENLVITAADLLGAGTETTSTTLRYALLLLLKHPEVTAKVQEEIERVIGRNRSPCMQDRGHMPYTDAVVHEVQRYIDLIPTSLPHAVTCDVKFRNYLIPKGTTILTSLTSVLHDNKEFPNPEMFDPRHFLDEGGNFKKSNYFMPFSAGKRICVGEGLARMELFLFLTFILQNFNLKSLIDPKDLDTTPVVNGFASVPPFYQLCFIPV
Sequence of Tyrosine-protein kinase Fyn (P06241 whole entry): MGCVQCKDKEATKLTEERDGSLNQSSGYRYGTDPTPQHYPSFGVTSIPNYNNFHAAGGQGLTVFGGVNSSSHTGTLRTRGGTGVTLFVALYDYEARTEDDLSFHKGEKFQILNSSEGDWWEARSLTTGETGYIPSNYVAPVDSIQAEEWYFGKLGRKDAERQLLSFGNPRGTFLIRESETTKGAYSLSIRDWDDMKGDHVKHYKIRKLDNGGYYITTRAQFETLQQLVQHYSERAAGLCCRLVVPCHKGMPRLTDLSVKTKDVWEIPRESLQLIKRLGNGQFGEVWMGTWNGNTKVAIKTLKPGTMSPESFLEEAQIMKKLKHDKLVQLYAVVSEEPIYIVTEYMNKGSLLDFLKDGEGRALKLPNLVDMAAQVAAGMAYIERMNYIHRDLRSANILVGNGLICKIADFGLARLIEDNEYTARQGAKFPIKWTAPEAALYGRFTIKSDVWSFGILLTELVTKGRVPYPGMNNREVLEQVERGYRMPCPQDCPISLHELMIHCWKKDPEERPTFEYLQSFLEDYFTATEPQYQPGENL
Sequence of 5-hydroxytryptamine receptor 4 (O70528 whole entry): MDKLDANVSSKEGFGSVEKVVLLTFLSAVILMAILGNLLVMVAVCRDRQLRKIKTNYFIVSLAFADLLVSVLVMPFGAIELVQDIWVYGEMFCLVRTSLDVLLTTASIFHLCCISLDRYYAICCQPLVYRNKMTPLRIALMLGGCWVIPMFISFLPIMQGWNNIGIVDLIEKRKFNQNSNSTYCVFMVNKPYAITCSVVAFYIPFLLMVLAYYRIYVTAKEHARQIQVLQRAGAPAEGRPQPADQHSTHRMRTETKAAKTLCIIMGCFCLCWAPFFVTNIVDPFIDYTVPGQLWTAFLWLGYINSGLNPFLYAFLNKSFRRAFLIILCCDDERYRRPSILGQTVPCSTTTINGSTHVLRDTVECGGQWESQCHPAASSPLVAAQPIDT
Sequence of C-C chemokine receptor type 2 (P41597 whole entry): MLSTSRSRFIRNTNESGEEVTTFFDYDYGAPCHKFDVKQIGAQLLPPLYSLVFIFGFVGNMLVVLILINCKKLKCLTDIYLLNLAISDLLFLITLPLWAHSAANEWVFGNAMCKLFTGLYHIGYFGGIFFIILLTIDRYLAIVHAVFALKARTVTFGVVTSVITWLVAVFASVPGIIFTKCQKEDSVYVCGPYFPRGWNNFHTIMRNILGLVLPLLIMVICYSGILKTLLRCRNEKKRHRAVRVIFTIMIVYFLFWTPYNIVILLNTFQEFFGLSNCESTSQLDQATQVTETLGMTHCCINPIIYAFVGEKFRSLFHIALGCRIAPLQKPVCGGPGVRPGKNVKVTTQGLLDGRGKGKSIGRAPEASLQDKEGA

COc1c(N2CCNC(C)C2)c(F)cc2c(=O)c(C(=O)O)cn(C3CC3)c12 (stereo not given) [GATIFLOXACIN]
Not Active: IC50 [1] | IC50 [2] | Ki [2] | IC50 [3] | Ki [3] | IC50 [4] | IC50 [5] | IC50 [6] | IC50 [7] | IC50 [8] | Ki [8] | IC50 [9] | IC50 [10] | Ki [10] | IC50 [11] | Ki [11] | IC50 [12] | Ki [12] | IC50 [13] | IC50 [14] | IC50 [15] | IC50 [16] | IC50 [17]

CC1(C)[C@@H](O[C@H]2O[C@H](C(=O)O)[C@@H](O)[C@H](O)[C@H]2O[C@@H]2O[C@H](C(=O)O)[C@@H](O)[C@H](O)[C@H]2O)CC[C@]2(C)[C@H]3C(=O)C=C4[C@@H]5C[C@@](C)(C(=O)O)CC[C@]5(C)CC[C@@]4(C)[C@]3(C)CC[C@@H]12 [GLYCYRRHIZIN]
Not Active: IC50 [1] | IC50 [2] | Ki [2] | IC50 [3] | Ki [3] | IC50 [4] | IC50 [5] | IC50 [6] | IC50 [7] | IC50 [8] | Ki [8] | IC50 [9] | IC50 [10] | Ki [10] | IC50 [11] | Ki [11] | IC50 [12] | Ki [12] | IC50 [13] | IC50 [14] | IC50 [15] | IC50 [16] | IC50 [17]

COC1=CC(=O)C[C@@H](C)[C@]12Oc1c(Cl)c(OC)cc(OC)c1C2=O [GRISEOFULVIN]
Not Active: IC50 [1] | IC50 [2] | Ki [2] | IC50 [3] | Ki [3] | IC50 [4] | IC50 [5] | IC50 [6] | IC50 [7] | IC50 [8] | Ki [8] | IC50 [9] | IC50 [10] | Ki [10] | IC50 [11] | Ki [11] | IC50 [12] | Ki [12] | IC50 [13] | IC50 [14] | IC50 [15] | IC50 [16] | IC50 [17]

C/C=C1\[C@H]2C=C(C)C[C@]1(N)c1ccc(=O)[nH]c1C2 [HUPERZINE A]
Not Active: IC50 [1] | IC50 [2] | Ki [2] | IC50 [3] | Ki [3] | IC50 [4] | IC50 [5] | IC50 [6] | IC50 [7] | IC50 [8] | Ki [8] | IC50 [9] | IC50 [10] | Ki [10] | IC50 [11] | Ki [11] | IC50 [12] | Ki [12] | IC50 [13] | IC50 [14] | IC50 [15] | IC50 [16] | IC50 [17]

NS(=O)(=O)c1cc2c(cc1Cl)NCNS2(=O)=O [HYDROCHLOROTHIAZIDE]
Not Active: IC50 [1] | IC50 [2] | Ki [2] | IC50 [3] | Ki [3] | IC50 [4] | IC50 [5] | IC50 [6] | IC50 [7] | IC50 [8] | Ki [8] | IC50 [9] | IC50 [10] | Ki [10] | IC50 [11] | Ki [11] | IC50 [12] | Ki [12] | IC50 [13] | IC50 [14] | IC50 [15] | IC50 [16] | IC50 [17]
